Source: PMC10861299, “A Systematic Survey of Reversibly Covalent Dipeptidyl Inhibitors of the SARS-CoV-2 Main Protease” (Journal of Medicinal Chemistry, 2023)
Where two headings read alike, the source gives them in different places.

Assays:
[1] = system: COVID-19 patients; parameters: method as in PMID 34914868; settings: patients with mild and moderate COVID-19; cited from earlier work
[2] = target: M^Pro-eGFP fusion protein in 293T cells (Severe acute respiratory syndrome coronavirus 2, UniProt P0DTD1); test: cell-based; parameters: species or system SARS-CoV-2
[3] = In vitro metabolic stability in human liver microsomes; settings: pH 7.4
[4] = Cytotoxicity, MTT assay; format: cell-based; settings: human, HEK293T cells, 293T cells
Experimental: Because of their high antiviral potency, MPI60 and MPI61 were advanced to characterizations of cytotoxicity and in vitro metabolic stability. For the cytotoxicity characterization, we used 293T cells and the MTT assay.[42] […] These CC50 values are similar to that of nirmatrelvir and lead to high calculated selectivity indices (CC50/antiviral EC50) for both compounds. The in vitro metabolic stability analysis for MPI60 and MPI61 was conducted using human liver microsomes.
HEK293T cells were seeded in 96-well plates and incubated at 37 °C and 5% CO2 for 24 h. The cells were then treated with different concentrations (200, 100, 50, 25, 12.5, 6.25, 3.125, 1.5625, 0.78125, and 0 μM) of the tested compound in triplicate for 48 h. Cell viability was assessed by the MTT assay to determine CC50. For the MTT assay, 20 μL MTT (5 mg/mL) was added to each well and incubated with cells for 4 h. After that, the supernatant was removed, and 200 μL DMSO was added per well. The absorbance was recorded at 490 nm. The CC50 value was determined by plotting the normalized cell viability (%) against the compound concentration.
Figure S5. Cytotoxicity curves of MPI60 and MPI61 in 293T cells tested by the MTT assay.
(1 picture or pasted object on this page, not shown here)

[5] = target: SARS-CoV-2 main protease (M^Pro) (Severe acute respiratory syndrome coronavirus 2, UniProt P0DTD1); test: In vitro M^Pro enzymatic inhibition with fluorogenic substrate Sub3; format: biochemical; settings: 20 nM M^Pro, 10 μM Sub3, 30 min preincubation; read-out: Enzymatic IC50
[6] = system: SARS-CoV-2 (USA-WA1/2020); test: Plaque reduction neutralization test in Vero E6 cells; format: cell-based; settings: Severe acute respiratory syndrome coronavirus 2, Vero C1008, 72 h, SARS-CoV-2 USA-WA1/2020, Vero E6 cells, 3 days, read-out: Antiviral EC50

SMILES | reduced the risk of hospitalization and death compared to placebo [1] | EC50 ([2]; read-out: Cellular EC50) | EC50 ([2]; read-out: cellular EC50) | CLint scaled at 5 μM [3] | half-life at 5 μM [3] | CC50 at 48 h [4] | IC50 [5] | EC50 [6]
CC(C)C(=O)OC[C@H]1O[C@@H](n2ccc(NO)nc2=O)[C@H](O)[C@@H]1O [molnupiravir] | 50% |  |  |  |  |  |  | 
O=C[C@H](C[C@@H]1CCNC1=O)NC(=O)C1CC2(CCCCC2)CN1C(=O)OCc1ccccc1 (stereo partly drawn) [MPI61, Benzyl 3-(((S)-1-Oxo-3-((S)-2-oxopyrrolidin-3-yl)propan-2-yl)carbamoyl)-2-azaspiro[4.5]decane-2-carboxylate] |  | 85 nM | < 100 nM | 45 mL/min/kg | 0.633 h | 230000 nM | 49 nM | 
O=C[C@H](C[C@@H]1CCNC1=O)NC(=O)C1CC2(CCCC2)CN1C(=O)OCc1ccccc1 (stereo partly drawn) [MPI60, Benzyl 3-(((S)-1-Oxo-3-((S)-2-oxopyrrolidin-3-yl)propan-2-yl)carbamoyl)-2-azaspiro[4.4]nonane-2-carboxylate] |  | 88 nM | < 100 nM | 16 mL/min/kg | 1.82 h | 95000 nM | 22 nM | 
O=C[C@H](C[C@@H]1CCNC1=O)NC(=O)[C@H](CC1CCCCC1)NC(=O)OCc1ccccc1 [MPI51, Benzyl ((S)-3-Cyclohexyl-1-oxo-1-(((S)-1-oxo-3-((S)-2-oxopyrrolidin-3-yl)propan-2-yl)amino)propan-2-yl)carbamate] |  | 770 nM |  |  |  |  | 56 nM | 6700 nM
